These results are taken from article PMC5442318, “Hundreds of dual-stage antimalarial molecules discovered by a functional gametocyte screen” (Nature Communications, 2017).

The test system of series [1] is Plasmodium berghei asexual blood stages. In words: In vivo antimalarial therapeutic efficacy, P. berghei murine model. Also on record: species or system CD1 mice. On the procedure: Two out of the six compounds progressed to SMFA, TCMDC-123767 (cluster 30) and TCMDC-141154 (cluster 4), were evaluated in vivo in the Plasmodium berghei murine model. Selection criteria was based on the compound potencies in both asexual stages and gametocytes in the Pf FGAA, as well as on their transmission-blocking activity observed in the SMFA (Table 1). Owing to compound availability, TCMDC-141154 had to be replaced by a close analogue from cluster 4: TCMDC-140549 (Supplementary Data 3). Compounds were tested at 50 mg kg^−1 single dose 2-day oral treatment and efficacy was measured as a reduction of asexual blood stages parasitaemia greater than 40% compared with the vehicle-treated mice.
Pathogen-free CD1 mice (Hsd:ICR) were obtained from Harlan Interfauna Iberica (Barcelona, Spain). Eight weeks old female CD-1 mice were infected intravenously with 10^7 infected erythrocytes (day 0). Dosing solutions were prepared in water containing 5% DMSO/20% Captisol, at a target dose of 50 mg kg^−1. Mice received two oral doses once a day according to their body weight (20 ml kg^−1) starting at day 2 after infection. Control mice received the same treatment schedule with the vehicle used for the compound preparation. Samples from mice peripheral blood were taken before starting treatment and 24 h after finishing the dosing, to measure parasitaemia by flow cytometry, using the YOYO-1 staining, to assess the reduction of parasitaemia compared with the vehicle-treated mice.

The nature of series [2]: In vivo pharmacokinetic study, single oral dose. Also on record: species or system CD-1 mice. On the procedure: Female CD-1 mice (Harlan Interfauna Iberica) at 8 weeks of age were used for single oral dose pharmacokinetic studies (n=2). Dosing solutions were prepared in 20% (v:v) Captisol in water, at a target dose of 50 mg kg^−1 (dose volume of 20 ml kg^−1). After oral dosing, blood samples (25 μl) were collected at 30 min, 1 h, 6 h and 8 h post dose for TCMDC-123767. All the blood samples were diluted with 25 μl of an aqueous solution of saponine 1% (w:v), and stored at −80 °C until analysis. Mice blood samples were analysed for each compound using a method upon protein precipitation followed by LC-MS/MS analysis (Applied Biosystems). Data analysis of the concentration time profiles was performed by noncompartmental methods by using WinNonLin Phoenix Version 6.3.

Molecules are shown by their SMILES. A value given as a limit tells only on which side of the number the result lay.

As usually defined, the ED50 is the dose at which the effect has come halfway, by size or by number of responders. `FC(F)(F)c1cnc(Sc2nnc(-c3ccncc3)o2)c(Cl)c1` [TCMDC-123767]: in series [1] (50 mg kg^−1 single dose 2-day oral treatment, mice), the “reduction of asexual blood stages parasitaemia (threshold 40% vs vehicle)” value is “not reduced above the threshold”. This molecule also had a 50% effective dose (ED50) in series [1] (single dose 2-day treatment, oral, P. berghei mice) greater than 50 mg/kg. For the same molecule, in series [2] (oral 50 mg kg^−1, mouse), the elimination in vivo entry is “rapidly eliminated” and the “exposure levels in blood” value is “very low”. Further, in series [2] (oral 50 mg kg^−1, mouse blood, LLOQ 2.5 ng ml^−1), the “last detected in blood above the lower limit of quantification (time post-administration)” value is 1 h.
